Measured values: patent US20180177749A1, “USE OF CYP EXPRESSION TO DIRECT THERAPEUTIC INTERVENTION IN CANCER” (REGENTS OF THE UNIVERSITY OF MINNESOTA, priority 2016, published 2018)
“Also recorded” adds a separate entry of the source. Like-named read-outs stand apart in the source and are kept apart here. One block for each compound: values may come before it.

Key:
MCF-7 cells [1] = experiment: JC-1 mitochondrial membrane potential staining, MCF-7; format: cell-based, human; conditions: HBB 20 μM 4 hours, (±)-14,15-EET 1 μM
Procedure: (§1) Cells were grown in chamber slides at 37° C. with 5% CO2 and treated with DMSO or HBB for 4 hours before JC-1 dye was added for the MCF-7 or MDA-MB-231 cell line. […] Images of red fluorescence (590 nm) and green fluorescence (530 nm) were acquired using an Olympus 1X70 microscope fitted with an Olympus DP70 digital camera (Olympus, Tokyo, Japan).

MCF-7 cells [2] = experiment: Western blot of signaling proteins, MCF-7; format: cell-based, human
Procedure: (§2) RIPA extracts of cells were prepared as described previously, in the presence of protease inhibitors and phosphatase inhibitors. Protein concentrations were determined by the micro-bicinchoninic acid (BCA) method, and 30 μg of protein was used for each lane of the SDS-polyacrylamide gel Western blot. Relative protein expression was estimated using GAPDH or β-actin as an internal standard.

MCF-7 cells [3] = experiment: RPPA analysis of MCF-7 cells treated with (±)-14,15-EET; format: cell-based, human; conditions: 15 minutes
Excerpt: It is proposed that HBB inhibition of ER+ tumor growth is due, in part, to direct inhibition of membrane associated non-mitochondrial CYP3A4, thereby suppressing Stat3 and mTOR signaling due to suppression of EET biosynthesis, resulting in AMPK activation (FIG. 6d, membrane diagram). […] In this model, EETs inhibit AMPK through unknown mechanisms. […] This model therefore proposes two sites of CYP3A4 activity, at cellular membranes and at mitochondria.

MDA-MB-231 cells = experiment: JC-1 mitochondrial membrane potential staining, MDA-MB-231; format: cell-based, human; conditions: HBB 20 μM 4 hours, (±)-14,15-EET 1 μM
Procedure: as §1

MDA-MB-231 cell line = experiment: Western blot of AMPK phosphorylation, MDA-MB-231; format: cell-based, human; conditions: 1.0 μM, 24 hours
Procedure: as §2

MCF-7 = experiment: MTT cell proliferation assay, MCF-7; format: cell-based; conditions: Homo sapiens, MCF7
Procedure: Cells were grown at 37° C. in a 5% CO2 incubator. […] MTT was then added (5 mg/ml), and after 2 h of incubation, the plates were centrifuged. The supernatant was removed; DMSO was added, and the absorbance was read at 540 nm with a BioTek 96-well plate reader.

MCF-7 cells [4] = experiment: Measurement of OCR and ECAR (extracellular flux), MCF-7; format: cell-based, human; conditions: t-AUCB 2.5, 5 μM, metformin 2.5, 5 mM, HBB 20, 40 μM, rotenone 1 μM
Procedure: Cells were maintained in growth medium consisting of 10% FBS at 37° C. with 5% CO2 and seeded at 100,000 cells per well in XF24-well cell culture microplates (Seahorse Bioscience, North Billirica, Mass.). Concentrated stocks of HBB were prepared in DMSO. HBB was diluted to 10× working concentration in XF assay medium (a non-buffered medium including 2 mM L-glutamine but no sodium bicarbonate (buffering agent), glucose, or sodium pyruvate). Assays were performed in the XF Extracellular Flux Analyzer (Seahorse Bioscience that measures uptake and excretion of metabolic end products in real time). Oxygen consumption rate (OCR) and extracellular acidification rate (ECAR) were measured using an XF Assay Kit. OCR is reported in pmoles/minute and ECAR in mpH/minute. Before analysis, the cells were switched from culture medium to XF assay medium. After baseline measurements, 75 μl of HBB prepared in assay medium was injected into each well to reach final working concentrations. After addition of HBB, OCR and ECAR were measured at 18-minute intervals. […] There were 6 replicates for the studies of the 3-18 and 4-14 cell lines.

MCF-7 xenograft = conditions: 100-fold higher dosing than HBB (Ma et al.); cited from earlier work
MCF-7 cells [5] = experiment: Clonogenicity of MCF-7 cells; format: cell-based, human; conditions: 1 mM, 24 hours treatment, 2 weeks culture
Procedure: FIG. 9A. […] After 24 hours of culture, the medium was then removed followed by addition of CM to the plates (left panel). The plates were then cultured for 2 weeks and at the endpoint the cell colonies were stained with crystal violet and the colonies counted. […] FIG. 9B.

MCF-7 cells [6] = experiment: Cellular EET levels by LC-ESI/MS/MS; format: cell-based, human; conditions: metformin 5 mM, 6 hours
Procedure: Samples were submitted to liquid chromatography-electrospray ionization/multiple reaction monitoring/mass spectrometry (LC-ESI/MRM/MS) analysis in a Thermo Electron Quantum Discovery Max triple quadrupole mass spectrometer (Thermo Finnigan, San Jose, Calif.) coupled with an Agilent 1100 HPLC (Santa Clara, Calif.), using argon as the collision gas. Negative ion monitoring was performed at the following diagnostic product ions: 319 m/z→155 m/z for 8,9-EET; 319 m/z→179 m/z for 11,12-EET; 319 m/z→219 m/z for 14,15-EET; 339 m/z→163 m/z for 8,9-[13C20]EET; 339 m/z→233 m/z for 11,12-[13C20]EET; and 339 m/z→259 m/z for 14,15-[^13C20]EET. Base-line resolution of EET regioisomers was achieved on a Phenomenex Luna C18 (2) reverse phase capillary column (250×0.5 mm, 5-μm particles) using the following mobile phase combinations: isocratic 5% B for 5 min, gradient 5-70% B for 5 min, hold at 70% for 30 min and then 95% for 10 min; A: 0.01% acetic acid in water, B: 0.01% acetic acid in acetonitrile; […] flow rate. A standard curve was obtained by linear regression of the peak area ratio of authentic EET regioisomers against internal standards. The amount of EETs in samples was calculated according to the standard curve. The (±)-5,6-EET regioisomer was not measured because it undergoes rapid internal degradation. […]

[7] = test system: cytochrome P450 reductase (CPR); experiment: CPR-mediated reduction of cytochrome c; format: biochemical; conditions: 1 and 10 mM
Procedure: In a quartz cuvette, reduction of cytochrome c reaction was initiated by addition of CPR (final concentration 0.2 mg/mL) to 1 mL potassium phosphate buffer (0.3 M, pH=8.3) containing cytochrome c ([…]) and NADPH 50 ([…]). Absorbance at 550 nm was monitored real time by a Cary 50 UV-Vis Spectrophotometer (Agilent, Santa Clara, Calif.).

CYP2J2 [8] = target: T1, CYP2J2 (Homo sapiens, UniProt P51589); experiment: Binding to CYP nanodiscs (CYP2J2)
T1 sequence (P51589 1-502): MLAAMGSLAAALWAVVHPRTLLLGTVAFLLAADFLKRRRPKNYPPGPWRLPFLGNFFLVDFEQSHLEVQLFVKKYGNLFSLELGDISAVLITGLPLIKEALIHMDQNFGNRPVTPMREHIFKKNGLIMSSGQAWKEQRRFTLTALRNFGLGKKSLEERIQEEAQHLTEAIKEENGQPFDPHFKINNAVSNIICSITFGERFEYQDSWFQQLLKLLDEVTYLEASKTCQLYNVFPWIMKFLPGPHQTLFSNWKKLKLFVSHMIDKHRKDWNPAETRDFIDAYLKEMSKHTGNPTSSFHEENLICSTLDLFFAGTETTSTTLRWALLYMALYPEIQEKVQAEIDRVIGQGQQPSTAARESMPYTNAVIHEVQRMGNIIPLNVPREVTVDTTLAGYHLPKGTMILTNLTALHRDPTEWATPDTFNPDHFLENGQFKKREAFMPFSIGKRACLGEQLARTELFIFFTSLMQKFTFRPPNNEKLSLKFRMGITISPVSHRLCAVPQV

MCF-7 cells [9] = experiment: Cellular ATP by luminescent assay; format: cell-based, human; conditions: 6 hours of treatment; metformin 5 mM
Procedure: Cells were seeded in 96-well tissue culture plate in 100 μL medium per well. After treatment with either vehicle or testing compound for an appropriate length of time, 50 μL mammalian cell lysis solution was added to each well and the plate was shaken for 5 minutes on an orbital shaker. To each well, 50 μL luminescent substrate and luciferase solution were then added. After incubation in the dark for 10 minutes, the luminescence measured. Cellular ATP levels were then calculated against a standard curve generated with ATP standards of known concentration.

CYP2C8 = target: T2, CYP2C8 (Homo sapiens, UniProt P10632); experiment: Binding to CYP nanodiscs (CYP2C8)
T2 sequence (P10632 1-490): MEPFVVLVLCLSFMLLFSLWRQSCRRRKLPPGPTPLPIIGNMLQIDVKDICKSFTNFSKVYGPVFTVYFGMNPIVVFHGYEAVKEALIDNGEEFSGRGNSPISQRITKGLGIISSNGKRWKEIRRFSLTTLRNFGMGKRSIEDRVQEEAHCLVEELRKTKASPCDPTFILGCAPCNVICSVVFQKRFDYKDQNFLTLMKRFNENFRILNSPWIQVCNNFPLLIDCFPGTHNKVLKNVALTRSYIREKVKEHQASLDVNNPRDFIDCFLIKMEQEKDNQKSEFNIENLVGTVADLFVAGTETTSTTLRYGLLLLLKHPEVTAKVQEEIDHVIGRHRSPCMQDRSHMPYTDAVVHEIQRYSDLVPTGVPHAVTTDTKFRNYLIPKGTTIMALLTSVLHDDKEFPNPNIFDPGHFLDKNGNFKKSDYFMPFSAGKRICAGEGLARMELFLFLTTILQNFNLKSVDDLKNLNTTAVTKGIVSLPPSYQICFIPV

CYP2J2 [10] = target: T1, CYP2J2; experiment: CYP2J2 epoxygenase activity; conditions: 0.75, 1.5 or 3 mM
[11] = read-out: IC50, MCF-7 breast cancer cell line

Compound: CCCCCC1OC1C/C=C\C/C=C\C/C=C\CCCC(=O)O (racemic) [(±)-14,15-EET, (±)-14,15-(5Z,8Z,11Z)-EET]
mitochondrial membrane potential (ΔΨm), JC-1 (MCF-7 cells [1]): increased mitochondrial cross membrane potential
AMPK phosphorylation (pAMPK) (MCF-7 cells [2]; 1 μM, 24 hours, MCF-7): suppression of pAMPKc
Stat3 phosphorylation on Y705 and S727 (MCF-7 cells [3]): activated
total mTOR level (MCF-7 cells [3]): increased
mitochondrial membrane potential (ΔΨm), JC-1 (MDA-MB-231 cells): increased mitochondrial membrane potential
AMPK phosphorylation (MDA-MB-231 cell line): no effect on AMPK phosphorylation

Compound: CCCCCCNC(=N)NC(=N)NCc1ccncc1 [HPB, N1-hexyl-N5-(pyridin-4-ylmethyl) biguanide]
IC50 (MCF-7; [11]): 40 µM
IC50 (MCF-7; read-out: IC50 MCF-7): 40 µM

Compound: CN(C)C(=N)N=C(N)N [metformin]
extracellular acidification rate (ECAR) (MCF-7 cells [4]): marginal
oxygen consumption rate (OCR) (MCF-7 cells [4]): marginal reduction of OCR
activity on the MCF-7 xenograft (MCF-7 xenograft): little activity
IC50 (MCF-7; read-out: IC50 MCF-7): 5000 µM
clonogenicity (MCF-7 cells [5]): Inhibits Clonogenicity
CYP3A4 protein levels (MCF-7 cells [2]; 1 mM, 48 hours): did not affect; also recorded: did not change CYP3A4 protein levels
onset of AMPK activation (phosphorylation) (MCF-7 cells [2]; HBB 20 μM, metformin 5 mM): first detectable after 6 hours
cellular EET levels (MCF-7 cells [6]): reduced
CPR-mediated reduction of cytochrome c [7]: not affected
CPR-mediated reduction of cytochrome c ([7]; listed as Metformin): failed to inhibit
binding to CYP2J2 (CYP2J2 [8]): binds
total cellular ATP levels (MCF-7 cells [9]): unchanged; also recorded: failed to deplete cellular ATP
binding to CYP2C8 (CYP2C8): binds
inhibition of CYP2J2 epoxygenase activity (CYP2J2 [10]): not inhibited

Compound: C=C(C)[C@H]1Cc2c(ccc3c2O[C@@H]2COc4cc(OC)c(OC)cc4[C@@H]2C3=O)O1 [rotenone]
extracellular acidification rate (ECAR) (MCF-7 cells [4]): Reduction of OCR and ECAR was highly significant
oxygen consumption rate (OCR) (MCF-7 cells [4]): Reduction of OCR and ECAR was highly significant

Continued, values first:

IC50 (MCF-7; [11]): ~500 µM
IC50 (MCF-7; read-out: IC50 MCF-7): 500 µM
Compound: CCCCCCNC(=N)NC(=N)NCc1ncc[nH]1 [HIB, N1-hexyl-N5-[(1H-imidazol-2-yl)methyl]-biguanide]

IC50 (MCF-7; read-out: IC50 MCF-7): > 10000 µM
Compound: CCCCNC(=N)N=C(N)N [buformin, reference compound]

IC50 (MCF-7; read-out: IC50 MCF-7): 7000 µM
Compound: N=C(N)/N=C(\N)NCCc1ccccc1 [phenformin, reference compound]
